Measured values reported in patent publication US6329400A, “Formamide compounds as therapeutic agents” (Glaxo Wellcome Inc., priority 1998, dated 2001).

Legend:
stromelysin-1 (MMP-3) = stromelysin-1 (MMP-3) (Homo sapiens, UniProt P08254); assay: Matrix Metalloprotease Inhibition Protocol, stromelysin-1; type: biochemical; conditions: fluorogenic substrate, pH 7.6; IC50 equivalent to Ki at [S]<<Km
Method: (§1) A. Matrix Metalloprotease Inhibition Protocol
(§2) Assays are conducted in a total volume of 0.180 mL assay buffer (200 mM NaCl, 50 mM Tris, 5 mM CaCl2, 10 μM ZnSO4, 0.005% Brij 35, pH 7.6) in each well of a black 96 well microtiter plate. 19 kD collagenase-1, 20 kD collagenase-3, stromelysin-1,and 50 kD gelatinase B concentrations are adjusted to 500 pM, 30 pM, 5 nM, and 100 pM, respectively. A dose response is generated using an eleven-point, 3-fold serial dilution with initial starting test compound concentrations of 100, 10, or 1 μM. Inhibitor and enzyme reactions are incubated for 30 minutes at ambient temperature and then initiated with 10 μM fluorogenic substrate (above). The product formation is measured at Excitation343 /Emission450 nm after 45-180 minutes using a Fluostar SLT fluorescence analyzer. Percent inhibition is calculated at each inhibitor concentration and the data were plotted using standard curve fitting programs. IC50 values were determined from these curves. Assays were run at low substrate concentration ([S]<<Km) such that the calculated IC50 values are equivalent to Ki within experimental error.

[1] = tested on: TNFα release from MonoMac 6 cells; assay: Cell-Based TNFα Release Inhibition Protocol; conditions: Homo sapiens, MONO-MAC-6; LPS/PMA-stimulated MonoMac 6 cells, 37° C., 2 hours
Method: C. Cell-Based TNFα Release Inhibition Protocol
This solution is then diluted 1:1000 (40 ng/mL and 120 ng/mL) for use later in the assay. Compounds (10 mM) are serially diluted 1:3 in DMSO. Compound dilutions (20 μL) are added to a sterile round bottom 96 well plate (20 μL:200 μL total volume=1:10 for final concentrations of 50 μM for test compounds). MonoMac 6 cell suspension (130 μL, 1.5×10^6 cells/mL) is then added to each well resulting in 2×10^5 cells/well. LPS/PMA (50 μL) solution is then added to each well to begin stimulation (final concentrations of 10 ng/mL and 30 ng/mL respectively). The plate is incubated at 37° C. for 2 hours then spun at 1,500 rpm for 3 minutes to pellet cells. The supernatant (120 μL/well) is removed to a new round bottom 96 well plate and diluted 1:10 in PBS. Then, 20 μL of the supernatant is transferred to a Cistron TNFα ELISA plate and processed according to the manufacturer's instructions to quantitate levels of TNFα. Percent inhibition of TNFα release is calculated at each inhibitor concentration and the data were plotted using standard curve fitting programs. IC50 values were determined from these curves.

[2] = target: 20 kD truncated collagenase-3 (MMP-13); assay: Matrix Metalloprotease Inhibition Protocol, collagenase-3; type: biochemical; conditions: fluorogenic substrate, pH 7.6; IC50 equivalent to Ki at [S]<<Km
Method: as §1
as §2, with “curves.” for “curves. Assays were run at low substrate concentration ([S]<<Km) such that the calculated IC50 values are equivalent to Ki within experimental error.”

[3] = target: 50 kD truncated gelatinase B (MMP-9); assay: Matrix Metalloprotease Inhibition Protocol, gelatinase B; type: biochemical; conditions: fluorogenic substrate, pH 7.6; IC50 equivalent to Ki at [S]<<Km
Method: as §1
as §2, with “curves.” for “curves. Assays were run at low substrate concentration ([S]<<Km) such that the calculated IC50 values are equivalent to Ki within experimental error.”

[4] = target: T1, 19 kD truncated collagenase-1 (MMP-1) (Homo sapiens, UniProt P03956); assay: Matrix Metalloprotease Inhibition Protocol, collagenase-1; type: biochemical; conditions: fluorogenic substrate, pH 7.6; IC50 equivalent to Ki at [S]<<Km
T1 construct: 19 kD truncated collagenase-1 (MMP-1)
T1 sequence (P03956 101-269 limits assumed): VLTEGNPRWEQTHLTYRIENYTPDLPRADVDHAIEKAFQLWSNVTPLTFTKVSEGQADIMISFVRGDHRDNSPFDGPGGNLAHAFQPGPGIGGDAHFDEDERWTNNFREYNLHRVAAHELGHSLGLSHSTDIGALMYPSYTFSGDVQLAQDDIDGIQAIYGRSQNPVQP
Method: as §1, §2

TNFα converting enzyme = target: T2, TNFα converting enzyme (Homo sapiens, UniProt P78536); assay: TNFα Converting Enzyme Inhibition Protocol; type: biochemical; conditions: cell-free, MonoMac 6 membrane preparation; IC50 equivalent to Ki at [S]<<Km
T2 construct: Membrane preparation from MonoMac 6 cells; endogenous in cells; host or cells: MonoMac 6 cells (membrane preparation, subfractionated extract)
T2 sequence (P78536 215-824): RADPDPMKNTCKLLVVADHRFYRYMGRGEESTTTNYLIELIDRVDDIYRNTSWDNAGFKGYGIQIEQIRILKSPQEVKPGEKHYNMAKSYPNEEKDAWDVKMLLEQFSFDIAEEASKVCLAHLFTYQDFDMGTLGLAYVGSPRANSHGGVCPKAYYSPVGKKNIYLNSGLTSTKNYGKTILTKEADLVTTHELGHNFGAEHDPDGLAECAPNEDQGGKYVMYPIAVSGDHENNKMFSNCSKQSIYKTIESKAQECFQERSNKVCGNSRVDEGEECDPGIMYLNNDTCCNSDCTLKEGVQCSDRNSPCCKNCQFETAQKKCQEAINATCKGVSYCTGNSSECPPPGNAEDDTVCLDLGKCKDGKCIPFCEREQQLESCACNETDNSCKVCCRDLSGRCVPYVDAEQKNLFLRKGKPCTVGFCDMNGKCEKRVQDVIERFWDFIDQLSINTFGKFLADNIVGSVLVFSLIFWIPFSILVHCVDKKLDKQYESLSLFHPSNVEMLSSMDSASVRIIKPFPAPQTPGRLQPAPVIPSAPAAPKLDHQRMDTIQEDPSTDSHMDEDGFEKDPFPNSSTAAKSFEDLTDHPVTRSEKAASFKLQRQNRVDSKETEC
Method: B. TNFα Converting Enzyme Inhibition Protocol
The reaction is quenched by addition of streptavidin SPA beads (Amersham RPNQ0006), with excess binding capacity relative to substrate, suspended in 250 mM EDTA, pH 8.0. Binding is complete within 15 minutes and plates are counted in a Wallac 1450 Microbeta liquid scintillation counter. Percent inhibition is calculated at each inhibitor concentration and the data were plotted using standard curve fitting programs. IC50 values were determined from these curves.

serum TNFα = assay: Murine LPS-Stimulated Serum TNF Inhibition Protocol; type: in vivo; conditions: 40 mg/kg, 10 min prior to LPS, mice, 90 min after LPS
Method: Murine LPS--Stimulated Serum TNF Inhibition Protocol
The potency of compounds of the invention as inhibitors of serum TNFα elevation in mice treated with lipopolysaccharide (LPS) is determined as follows; a) for subcutaneous (s.c.) administration, test compound is dissolved in DMSO and added to a mixture of 0.9% sodium chloride solution and 30% Trappsol HPB-20 (Cyclodextrin Technology Development Inc., Gainesville, Fla. USA) for a final DMSO concentration of 1%. The dosing solution is sonicated briefly and 0.2 mL is injected subcutaneously 10 min prior to LPS injection, b) for per oral (p.o.) administration, test compounds are formulated in 0.2 mL of PBS and 0.1% Tween 80 and given orally via gavage 10 min prior to LPS administration.
C3/hen female mice are injected intraperitoneally with 200 μg/kg LPS (Escherichia coli, Serotype 0111:B4, Sigma Chemical Co, St. Louis, Mo.) in PBS and sacrificed 90 min later by CO2 asphyxiation. Blood is immediately taken from the caudal vena cava and plasma prepared and frozen at -80° C. Plasma concentrations of TNF are measured by ELISA (Genzyme Co., Cambridge Mass.).

Chain of stromelysin-1 (MMP-3) (P08254 100-477): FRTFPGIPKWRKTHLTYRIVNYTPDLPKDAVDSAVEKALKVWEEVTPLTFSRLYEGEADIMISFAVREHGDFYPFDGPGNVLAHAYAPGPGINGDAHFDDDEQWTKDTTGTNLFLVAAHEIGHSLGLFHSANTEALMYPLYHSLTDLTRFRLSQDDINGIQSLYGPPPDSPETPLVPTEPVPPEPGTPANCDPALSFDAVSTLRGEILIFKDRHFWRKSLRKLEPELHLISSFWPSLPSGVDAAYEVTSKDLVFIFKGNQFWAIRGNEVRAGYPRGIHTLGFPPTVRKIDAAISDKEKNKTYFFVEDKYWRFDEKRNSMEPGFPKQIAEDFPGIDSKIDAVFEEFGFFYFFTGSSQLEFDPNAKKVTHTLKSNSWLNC

Row | SMILES | Ki (stromelysin-1 (MMP-3)) | IC50 [1] | Ki [2] | Ki [3] | Ki [4] | Ki (TNFα converting enzyme) | Percentage Inhibition of Serum TNFα (serum TNFα; p.o.) | Percentage Inhibition of Serum TNFα (serum TNFα; s.c.)
1 | CCC[C@@H]([C@@H](CC(C)Cc1ccccc1)C(=O)N[C@@H](CCCCNC(=O)OCc1ccccc1)C(=O)Nc1nccs1)N(O)C=O (stereo partly drawn) [Example 9, (2R,3S)-3-(Formyl-hydroxyamino)-2-(3-phenyl-2-methyl-1-propyl)hexanoic Acid [(1S)-5-Benzyloxycarbonylamino-1-(1,3-thiazol-2-ylcarbamoyl)-1-pentyl]amide] | > 1000 nM | 100 to 500 nM | 500 to 1000 nM | > 1000 nM | > 1000 nM | – | – | –
2 | CC(C)(C)[C@H](NC(=O)[C@H](CCCc1ccccc1)[C@H](CCC(F)(F)F)N(O)C=O)C(=O)Nc1nccs1 [Example 183, (2R,3S)-3-(Formyl-hydroxyamino)-2-(3-phenyl-1-propyl)-6,6,6-trifluorohexanoic Acid [(1S)-2,2-Dimethyl-1-(1,3-thiazol-2-ylcarbamoyl)-1-propyl]amide] | 100 to 500 nM | – | < 100 nM | < 100 nM | > 1000 nM | 100 to 500 nM | ++ (50%-75%) | –
3 | CCC[C@@H]([C@@H](Cc1ccc(C)s1)C(=O)N[C@H](C(=O)Nc1nccs1)[C@@H](C)OCc1ccccn1)N(O)C=O [Example 146, (2R,3S)-3-(Formyl-hydroxyamino)-2-(5-methyl-2-thiophenemethyl)hexanoic Acid [(1S,2R)-2-(2-Pyridylmethoxy)-1-(1,3-thiazol-2-ylcarbamoyl)-1-propyl]amide] | – | – | – | – | – | – | – | ++ (50%-75%)
4 | CCC[C@@H]([C@@H](CC(C)Cc1ccccc1)C(=O)N[C@H](C(=O)Nc1nccs1)C(C)(C)SCCNC(=O)OCc1ccccc1)N(O)C=O (stereo partly drawn) [Example 7, (2R,3S)-3-(Formyl-hydroxyamino)-2-(3-phenyl-2-methyl-1-propyl)hexanoic Acid [(1R)-2-Methyl-2-(2-benzyloxycarbonylamino-1-ethylsulfanyl)-1-(1,3-thiazol-2-ylcarbamoyl)-1-propyl]-amide] | > 1000 nM | > 1000 nM | 500 to 1000 nM | > 1000 nM | > 1000 nM | 100 to 500 nM | – | –
5 | CCC[C@@H]([C@@H](CC(C)Cc1ccccc1)C(=O)N[C@H](C(=O)Nc1nccs1)C(C)(C)C)N(O)C=O (stereo partly drawn) [Example 8, (2R,3S)-3-(Formyl-hydroxyamino)-2-(3-phenyl-2-methyl-1-propyl)hexanoic Acid [(1S)-2,2-Dimethyl-1-(1,3-thiazol-2-ylcarbamoyl)-propyl]amide] | > 1000 nM | > 1000 nM | 100 to 500 nM | > 1000 nM | > 1000 nM | < 100 nM | – | –
6 | CCC[C@@H]([C@H](COCc1ccccc1)C(=O)N[C@@H](CCCCNC(=O)OCc1ccccc1)C(=O)Nc1nccs1)N(O)C=O [Example 6, (2R,3S)-3-(Formyl-hydroxyamino)-2-(benzyloxymethyl)hexanoic Acid [(1S)-5-Benzyloxycarbonylamino-1-(1,3-thiazol-2-ylcarbamoyl)-1-pentyl]amide] | 100 to 500 nM | > 1000 nM | 100 to 500 nM | > 1000 nM | > 1000 nM | < 100 nM | – | –
7 | C[C@@H]([C@@H](CCCc1ccc(Cl)cc1)C(=O)N[C@H](C(=O)Nc1cccnc1)C(C)(C)C)N(O)C=O [Example 195, (2R,3S)-3-(Formyl-hydroxyamino)-2-(3-(4-chlorophenyl)-1-propyl)butanoic Acid [(1S)-2,2-Dimethyl-1-(pyridine-3-ylcarbamoyl)-1-propyl]amide] | < 100 nM | – | < 100 nM | < 100 nM | < 100 nM | > 1000 nM | – | –
8 | CCC[C@@H]([C@@H](CCCc1ccccc1)C(=O)N[C@@H](CCCCNC(=O)OCc1ccccc1)C(=O)Nc1nncs1)N(O)C=O [Example 3, (2R,3S)-3-(Formyl-hydroxyamino)-2-(3-phenyl-1-propyl)hexanoic Acid [(1S)-5-Benzyloxycarbonylamino-1-(1,3,4-thiadiazol-2-yl-carbamoyl)-1-pentyl]amide] | < 100 nM | 100 to 500 nM | – | – | > 1000 nM | < 100 nM | – | –
9 | CCC[C@@H]([C@@H](CCCc1ccoc1)C(=O)N[C@H](C(=O)Nc1nccs1)C(C)(C)C)N(O)C=O [Example 5, (2R,3S)-3-(Formyl-hydroxyamino)-2-(3-(3-furyl)-1-propyl)hexanoic Acid [(1S)-2,2-Dimethyl-1-(1,3-thiazol-2-ylcarbamoyl)-1-propyl]amide] | < 100 nM | 100 to 500 nM | < 100 nM | < 100 nM | 500 to 1000 nM | – | – | –
10 | C[C@@H]([C@@H](CC1CCC(c2ccccc2)CC1)C(=O)N[C@H](C(=O)Nc1nccs1)C(C)(C)C)N(O)C=O (stereo partly drawn) [Example 2, (2R,3S)-3-(Formyl-hydroxyamino)-2-(4-phenylcyclohexylmethyl)butanoic Acid [(1S)-2,2-Dimethyl-1-(1,3-thiazol-2-ylcarbamoyl)-1-propyl]amide] | 100 to 500 nM | > 1000 nM | < 100 nM | 100 to 500 nM | 500 to 1000 nM | < 100 nM | – | –
11 | CCC[C@@H]([C@@H](CCCc1ccoc1)C(=O)N[C@@H](CCCCNC(=O)OCc1ccccc1)C(=O)Nc1nccs1)N(O)C=O [Example 4, (2R,3S)-3-(Formyl-hydroxyamino)-2-(3-(3-furyl)-1-propyl)hexanoic Acid [(1S)-5-Benzyloxycarbonylamino-1-(1,3-thiazol-2-ylcarbamoyl)-1-pentyl]amide] | < 100 nM | < 100 nM | < 100 nM | 100 to 500 nM | > 1000 nM | < 100 nM | – | –
12 | C[C@@H]([C@@H](CCCc1ccccc1)C(=O)N[C@H](C(=O)Nc1cccnc1)C(C)(C)C)N(O)C=O [Example 1, (2R,3S)-3-(Formyl-hydroxyamino)-2-(3-phenyl-1-propyl)butanoic Acid [(1S)-2,2-Dimethyl-1-(pyridine-3-ylcarbamoyl)-1-propyl]amide] | < 100 nM | – | < 100 nM | < 100 nM | < 100 nM | 500 to 1000 nM | – | –
